In patent publication US20200268832A1, “COMPOSITIONS FOR DELIVERY TO AND TREATMENT OF ATHEROSCLEROTIC PLAQUES” (Sanford Burnham Prebys Medical Discovery Institute, priority 2015, published 2020):
“Also recorded” adds a separate entry of the source.

Experiments:
[1] = molecular target: T1, p32 protein (Homo sapiens, UniProt Q07021); assay: TT1 phage binding inhibition assay (ELISA-type); conditions: 100 μM compound
T1 construct: 6xHis; host or cells: Rosetta-gami-2 cells (Novagen); an E. coli strain by own knowledge
T1 sequence (Q07021 74-282): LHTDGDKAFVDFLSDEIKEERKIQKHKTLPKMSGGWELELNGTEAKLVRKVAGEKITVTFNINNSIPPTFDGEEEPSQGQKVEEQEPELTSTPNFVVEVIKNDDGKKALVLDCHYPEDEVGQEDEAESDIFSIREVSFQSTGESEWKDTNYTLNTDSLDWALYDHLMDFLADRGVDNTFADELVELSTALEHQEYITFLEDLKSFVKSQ
Method: The binding of individual phage to p32 was verified using ELISA-type of phage binding assay. 96-well plates (Corning Life Sciences, Tewksbury, Mass., USA) were coated with 100 μL of 5 μg/mL p32 in PBS at 4° C. overnight, washed 3 times with 200 μL of PBST (PBS+0.05% Tween-20), blocked with 200 μL of 0.5% bovine serum albumin (BSA) in PBST for 1 h at 37° C., and washed 3 times with PBST. Phages (1.11*10^8 pfu in 100 μL PBST) were added to p32-coated/BSA-blocked wells, the plate was incubated at 4° C. overnight, and washed 3 times with PBST. Subsequently, the plates were incubated with 100 μL in-house prepared polyclonal rabbit anti-T7 antibody diluted 1:1000 in PBST for 1 h at 4° C., and washed 3 times with washing buffer. Horseradish peroxidase (HRP)-labeled anti-rabbit IgG (Sigma-Aldrich) was diluted 1:1000 in PBS, and 100 μL was added to the wells, followed by 1 h incubation at 4° C. and washing 3 times. Next, 100 μL of OPD silver and gold substrate (Sigma-Aldrich) was added to the wells and incubated at room temperature until visible color was observed (<30 min). The reaction was stopped by adding 50 μL of 1M H2SO4, and the plate was read at 492 nm (Varioskan Flash, Thermo Scientific, Waltham, Mass., USA).
The ability to inhibit TT1-phage binding to p32 protein was used as a secondary assay to verify the hit compounds. The competition assay was based on the phage binding assay described above with minor modifications. ELISA plates were coated with 2.5 μg/mL p32, incubated with phages (1.11*10^8 pfu in 100 μL PBST) and 100 μM hit compounds at 4° C. overnight, and followed by antibody incubation and chromogenic reaction. Negative controls included DMSO at concentration it was used to dissolve the hit compounds.

[2] = molecular target: T1, p32 protein; assay: NMR 1D 1H-aliph spectra of p32 with compounds; type: binding; conditions: 5 μM p32; compounds 100 and 500 μM; TT1 70 μM
Method: FIGS. 3A and 3B are graphs showing NMR based evaluation of binding of compounds 4014008 and 7933989 to P32 protein. The ID ^1H-aliph spectra of 5 μM P32 in the absence (bottom) and presence of compounds #4014008 (A) and #7933989 (B) at 100 μM (second from bottom) and 500 μM (second from top) were collected. As a control, the spectrum of p32 in the presence of the known peptide binder, TT1 at 70 μM, was also collected (top).
All the NMR experiments were carried out on a Bruker Avance 700 spectrometer equipped with a TCI cryoprobe at T=293 K. For structure determinations, the peptide concentration was 100 μM in the NMR buffer in presence of 150 μM of ZnCl2. One-dimensional (1D) 1H spectra were acquired with a spectral width of 8417.51 Hz, relaxation delay 1.0 s, 8 k data points for acquisition and 16 k for transformation.

[3] = system: atherosclerotic plaques; assay: Plaque homing of FAM-labeled #008-NWs in atherosclerotic mouse; type: in vivo; conditions: 1 mg/ml, 200 μl, IV, two hours circulation; listed as #008
[4] = system: plaque macrophages; assay: Cytotoxicity to plaque macrophages ex vivo; type: cell-based
Description: Two of the hits from the screen passed all the specificity tests, and one of these has been characterized to some extent in vivo (FIG. 10). […] Thus, the discovered compounds, especially #008 and #7933989, served as a starting point for other compounds with affinity for p32. Orally available compounds provide significant new opportunities in prevention and treatment of atherosclerosis.

inhibition at 100 µM [1]: 50%
Structure (SMILES): Cc1cnccc1NCCN [Compound 4014008, N-(3-methylpyridin-4-yl)ethane-1,2-diamine]
perturbations in 1D 1H-aliphatic spectra of p32 [2]: caused similar perturbations; also recorded: shift in the peak at around −0.3 ppm
nanoparticle homing/accumulation in plaques [3]: specifically home; also recorded: directs nanoparticle accumulation in plaques
cytotoxicity to plaque macrophages [4]: cytotoxic to plaque macrophages
